Conditions: 101.33 kPa, Liquid, Hot wire method

Cc1ccc(C)cc1 [1,4-dimethylbenzene]
Conditions	thermal conductivity [W/m/K]	thermal diffusivity [m2/s]
287.33 K	0.1296	–
287.55 K	0.1295	–
287.73 K	0.1294	–
288.19 K	–	8.96e-08
288.74 K	–	8.89e-08
289.19 K	–	8.92e-08
294.03 K	0.1278	–
294.27 K	0.1278	–
294.44 K	0.1277	–
294.86 K	–	8.78e-08
295.48 K	–	8.82e-08
295.9 K	–	8.82e-08
311.71 K	0.1234	–
311.94 K	0.1232	–
312.11 K	0.1231	–
312.56 K	–	8.41e-08
313.14 K	–	8.38e-08
313.56 K	–	8.36e-08
328.75 K	0.1191	–
328.99 K	0.119	–
329.16 K	0.1189	–
329.6 K	–	8.03e-08
330.21 K	–	8.02e-08
330.63 K	–	8.01e-08

C=CCCCCC [1-heptene]
Conditions	thermal conductivity [W/m/K]	thermal diffusivity [m2/s]
262.46 K	0.1325	–
262.75 K	0.1324	–
262.97 K	0.1324	–
263.83 K	–	9.06e-08
264.74 K	–	9.11e-08
265.37 K	–	9.1e-08
280.48 K	0.1268	–
280.8 K	0.1267	–
281.03 K	0.1264	–
281.93 K	–	8.66e-08
282.87 K	–	8.67e-08
283.53 K	–	8.66e-08
297.36 K	0.1213	–
297.71 K	0.1213	–
297.95 K	0.1212	–
298.89 K	–	8.27e-08
299.87 K	–	8.27e-08
300.55 K	–	8.25e-08
320.47 K	0.1144	–
320.83 K	0.1143	–
321.08 K	0.1142	–
322.07 K	–	7.76e-08
323.1 K	–	7.76e-08
323.81 K	–	7.73e-08

C=CCCC [1-pentene]
Conditions	thermal conductivity [W/m/K]	thermal diffusivity [m2/s]
257.36 K	0.1284	–
257.67 K	0.1283	–
257.93 K	0.1283	–
258.93 K	–	9.28e-08
259.91 K	–	9.28e-08
260.57 K	–	9.25e-08
276.47 K	0.121	–
276.82 K	0.1209	–
277.07 K	0.1203	–
278.11 K	–	8.65e-08
279.18 K	–	8.7e-08
279.9 K	–	8.66e-08
294.04 K	0.1141	–
294.42 K	0.1139	–
294.66 K	0.1139	–
295.8 K	–	8.2e-08
296.87 K	–	8.16e-08
297.67 K	–	8.16e-08
301.07 K	0.1113	–
301.46 K	0.1112	–
301.75 K	0.1111	–
302.88 K	–	7.99e-08
303.99 K	–	7.96e-08
304.8 K	–	7.96e-08

C=C(C)C(C)C [2,3-dimethyl-1-butene]
Conditions	thermal conductivity [W/m/K]	thermal diffusivity [m2/s]
258.98 K	0.117	–
259.29 K	0.1169	–
259.4 K	0.1168	–
260.37 K	–	8.17e-08
261.29 K	–	8.19e-08
261.55 K	–	8.16e-08
278.29 K	0.1108	–
278.63 K	0.1106	–
278.87 K	0.1105	–
279.73 K	–	7.65e-08
280.7 K	–	7.67e-08
281.39 K	–	7.68e-08
294.18 K	0.1058	–
294.53 K	0.1056	–
294.78 K	0.1055	–
295.65 K	–	7.3e-08
296.68 K	–	7.29e-08
297.38 K	–	7.28e-08
312.86 K	0.1002	–
313.23 K	0.1	–
313.5 K	0.09991	–
314.43 K	–	6.88e-08
315.45 K	–	6.84e-08
316.18 K	–	6.83e-08
322.51 K	0.0974	–
322.9 K	0.0973	–
323.18 K	0.0972	–
324.07 K	–	6.6e-08
325.17 K	–	6.65e-08
325.9 K	–	6.62e-08
326.52 K	0.09639	–
326.91 K	0.09621	–
327.21 K	0.09612	–
328.13 K	–	6.58e-08
329.22 K	–	6.58e-08
330.05 K	–	6.62e-08

CC(C)=C(C)C [2,3-dimethyl-2-butene]
Conditions	thermal conductivity [W/m/K]	thermal diffusivity [m2/s]
258.89 K	0.1356	–
259.17 K	0.1355	–
259.37 K	0.1354	–
260.14 K	–	9.38e-08
260.96 K	–	9.41e-08
261.54 K	–	9.41e-08
278.21 K	0.1285	–
278.5 K	0.1283	–
278.72 K	0.1283	–
279.54 K	–	8.88e-08
280.38 K	–	8.85e-08
281 K	–	8.85e-08
294.09 K	0.1228	–
294.4 K	0.1226	–
294.63 K	0.1225	–
295.49 K	–	8.48e-08
296.37 K	–	8.44e-08
297.02 K	–	8.45e-08
312.76 K	0.1162	–
313.09 K	0.116	–
313.34 K	0.1159	–
314.2 K	–	7.96e-08
315.15 K	–	7.95e-08
315.82 K	–	7.94e-08
322.4 K	0.1128	–
322.74 K	0.1126	–
322.98 K	0.1125	–
323.81 K	–	7.58e-08
324.73 K	–	7.56e-08
325.39 K	–	7.54e-08
326.42 K	0.1116	–
326.77 K	0.1115	–
327.02 K	0.1114	–
327.89 K	–	7.6e-08
328.9 K	–	7.63e-08
329.57 K	–	7.59e-08

[2H]c1c([2H])c([2H])c([2H])c([2H])c1[2H] [benzene-d6]
Conditions	thermal conductivity [W/m/K]	thermal diffusivity [m2/s]
280.76 K	0.1398	–
281.06 K	0.1397	–
281.26 K	0.1396	–
282.09 K	–	8.1e-08
282.98 K	–	8.15e-08
283.58 K	–	8.12e-08
291.53 K	0.1364	–
291.83 K	0.1363	–
292.04 K	0.1362	–
292.92 K	–	7.93e-08
293.83 K	–	7.96e-08
294.46 K	–	7.95e-08
304.05 K	0.1323	–
304.37 K	0.1322	–
304.59 K	0.1321	–
305.49 K	–	7.7e-08
306.42 K	–	7.69e-08
307.08 K	–	7.69e-08
316.34 K	0.1284	–
316.66 K	0.1283	–
316.89 K	0.1282	–
317.82 K	–	7.46e-08
318.77 K	–	7.45e-08
319.44 K	–	7.44e-08
326.75 K	0.1252	–
327.08 K	0.125	–
327.31 K	0.1249	–
328.26 K	–	7.25e-08
329.22 K	–	7.23e-08
329.88 K	–	7.2e-08

c1ccccc1 [benzene]
Conditions	thermal conductivity [W/m/K]	thermal diffusivity [m2/s]
281.18 K	0.1464	–
281.49 K	0.1462	–
281.76 K	0.1461	–
282.86 K	–	9.74e-08
283.9 K	–	9.74e-08
284.75 K	–	9.72e-08
295.92 K	0.1416	–
296.25 K	0.1414	–
296.53 K	0.1413	–
297.67 K	–	9.4e-08
298.78 K	–	9.44e-08
299.68 K	–	9.44e-08
301.25 K	0.1399	–
301.59 K	0.1398	–
301.87 K	0.1396	–
303.02 K	–	9.29e-08
304.13 K	–	9.31e-08
305.05 K	–	9.29e-08
319.14 K	0.134	–
319.49 K	0.1338	–
319.79 K	0.1337	–
321.04 K	–	8.97e-08
322.15 K	–	8.92e-08
323.12 K	–	8.9e-08

C1=CC2C=CC1C2 [bicyclo[2.2.1]hepta-2,5-diene]
Conditions	thermal conductivity [W/m/K]	thermal diffusivity [m2/s]
258.57 K	0.1485	–
258.7 K	0.1484	–
258.8 K	0.1484	–
258.99 K	–	1.08e-07
259.32 K	–	1.08e-07
259.55 K	–	1.09e-07
276.78 K	0.1426	–
276.89 K	0.143	–
276.97 K	0.1429	–
277.21 K	–	1.02e-07
277.47 K	–	1.02e-07
277.66 K	–	1.01e-07
296.23 K	0.1371	–
296.35 K	0.1369	–
296.43 K	0.1368	–
296.61 K	–	9.43e-08
296.89 K	–	9.44e-08
297.1 K	–	9.45e-08
313.27 K	0.1315	–
313.38 K	0.1314	–
313.46 K	0.1313	–
313.63 K	–	8.85e-08
313.9 K	–	8.86e-08
314.1 K	–	8.86e-08
331.81 K	0.1256	–
331.91 K	0.1255	–
331.98 K	0.1254	–
332.15 K	–	8.25e-08
332.4 K	–	8.25e-08
332.57 K	–	8.24e-08
